According to BindingDB's records for doi:10.1021/jm950721m (Warner-Lambert, 1996):

Experiments:
[1] = Compound was evaluated for effective concentration […] for Dopamine receptor D2 mitogenesis. (95% confidence intervals)
[2] = Binding affinity to rat Dopamine receptor D3 expressed in CHO cells was determined using [125 I] iodosulpride as radioligand

| Structure (SMILES) | EC50 [1] [pM] | Ki [2] [pM] |
| --- | --- | --- |
| Nc1cccc(C#CCCN2CC=C(c3ccccc3)CC2)c1 [3-[4-(4-Phenyl-3,6-dihydro-2H-pyridin-1-yl)-but-1-ynyl]-phenylamine] | 9800 | 360 |
| Nc1ccc(C#CCCN2CC=C(c3ccccc3)CC2)cc1 [4-[4-(4-Phenyl-3,6-dihydro-2H-pyridin-1-yl)-but-1-ynyl]-phenylamine] | 500 |  |
